Where two headings read alike, the source gives them in different places.
Experiments:
[1] = system: ACC; assay: ACC phosphorylation in HEK293 cells (western blot); assay type: cell-based, human; conditions: 1 hr
Protocol: (§1) Figure 1 SU6656 Activates AMPK but Not AMPK-Related Kinases (A) HEK293 cells were incubated with the indicated concentrations of SU6656 or berberine (300 μM) for 1 hr; total AMPK activity was assayed in immunoprecipitates (top; mean ± SEM, n = 4), and phosphorylation of AMPK (Thr172), ACC (Ser80), and Raptor (Ser792) analyzed by western blotting (bottom; n = 2). (B) HEK293 cells were incubated with 100 μM SU6656 (1 hr), AMPK complexes containing α1, α2, β1, and β2 immunoprecipitated using isoform-specific antibodies, and AMPK activity measured (mean ± SEM, n = 4). (C) HeLa cells stably expressing LKB1 ([Fogarty et al., 2010]) were incubated with 100 μM SU6656 for 1 hr, AMPK or individual ARKs immunoprecipitated, and kinase assays carried out (antibodies that distinguish MARK2/MARK3 were not available, so they were assayed together). Results are means ± SEM (n = 2). In all panels, asterisks indicate significant differences from controls without SU6656. *p < 0.05, **p < 0.01, ****p < 0.0001.
(B) WT or RG cells were treated as in (A) and nucleotides extracted for analysis (mean ± SD, n = 3). […] (E) (See also Figure S2) Time courses of cellular oxygen uptake before and after addition of the indicated concentrations of sorafenib (SO, μM), SU6656 (100 μM) or phenformin (PHEN, 10 mM) (mean ± SEM, n = 4). (F) Effect of various concentrations of sorafenib or phenformin (10 mM) on activation (top, mean ± SEM, n = 3) or phosphorylation (bottom) of AMPK in cells expressing wild-type AMPK-γ2 (WT) or the R531G mutant AMPK-γ2 (RG). In all panels, asterisks show significant differences from DMSO controls (ns, not significant). […]
Cells were incubated for 60 min and AMPK activity measured; results in the top panel are means ± SEM (n = 8), with significant differences from the DMSO control indicated (ns, not significant). […]
SDS-PAGE was performed using precast Bis-Tris 4–12% gradient polyacrylamide gels in the MOPS buffer system (ThermoFisher Scientific). […] Protein concentrations were determined by Coomassie Blue binding with bovine serum albumin as standard ([Bradford, 1976]). […]

[2] = system: HEK293 cells; assay: Cellular AMP:ATP and ADP:ATP ratios; assay type: cell-based, human; conditions: 1 hr
Protocol: (B) WT or RG cells were treated as in (A) and nucleotides extracted for analysis (mean ± SD, n = 3). […] (E) (See also Figure S2) Time courses of cellular oxygen uptake before and after addition of the indicated concentrations of sorafenib (SO, μM), SU6656 (100 μM) or phenformin (PHEN, 10 mM) (mean ± SEM, n = 4). (F) Effect of various concentrations of sorafenib or phenformin (10 mM) on activation (top, mean ± SEM, n = 3) or phosphorylation (bottom) of AMPK in cells expressing wild-type AMPK-γ2 (WT) or the R531G mutant AMPK-γ2 (RG). In all panels, asterisks show significant differences from DMSO controls (ns, not significant). In (B), daggers (†) show significant differences between results in WT and RG cells. *p < 0.05, **p < 0.01, ***p < 0.001, ****p < 0.0001, ^††††p < 0.0001.
Cells were incubated for 60 min and AMPK activity measured; results in the top panel are means ± SEM (n = 8), with significant differences from the DMSO control indicated (ns, not significant). The bottom panels show western blots from the same experiment (n = 2). (B) Analysis of AMP:ATP and ADP:ATP ratios from a parallel experiment to that in (A). Results are means ± SEM (n = 3), with significant differences from the DMSO control indicated. *p < 0.05, **p < 0.01, ****p < 0.0001.
The levels of AMP, ADP and ATP were measured using a TSQ Quantiva interfaced with Ultimate 3000 Liquid Chromatography system (ThermoScientific), equipped with a porous graphitic carbon column (HyperCarb 30x1mm ID 3 μm; Part No: C-35003-031030, Thermo-Scientific). Mobile phase buffer A consisted of 0.3% (v/v) formic acid adjusted to pH 9 with ammonia prior to a 1:10 dilution. Mobile phase buffer B was 80% (v/v) acetonitrile. The column was maintained at a controlled temperature of 30°C and was equilibrated with 10% buffer B for 5 minutes at a constant flow rate of 0.06 mL/min. Aliquots of 1 μL of each sample were loaded onto the column and compounds eluted with a linear gradient of 10%-60% buffer B over 9 min. Buffer B was then increased to 100% within 1 min, and the column washed for 5 min with 100% Buffer B. Eluents were sprayed into the TSQ Quantiva using Ion Max NG ion source with ion transfer tube temperature set to 350°C and vaporizer temperature 125°C. The TSQ Quantiva was run in negative mode with a spray voltage of 2600, sheath gas 40 and Aux gas 10. Levels of ATP, ADP and AMP were measured using multiple reactions monitoring mode (MRM) with optimised collision energies and radio frequencies previously determined by infusing pure compounds. Three transitions were used to monitor each of the three compounds, ATP (505.92>158.98, 505.92>408.12 and 505.92>426.12), ADP (426.98>158.98, 426.98>328.78 and 426.98>409.09) and AMP (345.96>134.20, 345.96>151.27 and 345.96>211.12).

[3] = system: LKB1 versus AMPK; set-up: method as in MRC Kinase Inhibitor Database; conditions: ref MRC Kinase Inhibitor Database; cited from earlier work
[4] = system: AMPK; assay: AMPK activity and Thr172 phosphorylation in HEK293 cells; assay type: cell-based, human; conditions: 1 hr
Protocol: as §1, with “0.0001. […]” for “0.0001.”
Endogenous AMPK was immunoprecipitated using the specified antibodies (for total AMPK, an equal mixture of anti-α1 and –α2 antibodies) and assayed at 200 μM ATP ([Hardie et al., 2000], [Towler et al., 2008]) using the AMARA peptide ([Dale et al., 1995]) as substrate, except for assays of allosteric activation by AMP (Figure 5A) where the SAMS peptide was used as substrate with 2 mM ATP ([Gowans et al., 2013]). The AMPK-related kinases SIK1, SIK2, SIK3, SNARK, MARK2/3 and MARK4 were immunoprecipitated and assayed as previously described ([Lizcano et al., 2004]) in lysates of Hela cells stably expressing LKB1 ([Fogarty et al., 2010]). LKB1 was assayed using the LKBtide peptide as substrate ([Sakamoto et al., 2004]).

[5] = molecular target: α2 kinase domain (α2-KD, residues 1–310) (Homo sapiens, UniProt P54646); conditions: read-out: Km for ATP; α2-KD phosphorylated using CaMKK2
[6] = system: Erk1/Erk2; assay: Erk1/Erk2 phosphorylation in HEK293 cells (western blot); assay type: cell-based, human; conditions: SU6656 100 μM, PP2 100 nM
[7] = system: Erk1/2; assay: Erk1/2 phosphorylation in SYF cells; assay type: cell-based, mouse; conditions: SU6656 100 μM, PP2 100 nM
[8] = system: AMPK; assay type: cell-based, mouse; conditions: SYF cells, 1 hr
Protocol: We next tested the effect of SU6656 in SYF cells, which are mouse embryo fibroblasts (MEFs) with null alleles for Src, Yes, and Fyn, the three Src kinases expressed in MEFs ([Klinghoffer et al., 1999]).
Top: AMPK activity (mean ± SEM, n = 4); bottom: western blots showing phosphorylation of Thr172 on AMPK, and of ERK1/2, in cells treated with DMSO (control), SU6656 (100 μM), or PP2 (100 nM) (n = 2). (B) As (A), but in SYF cells. (C) HeLa cells were transfected with DNAs encoding GFP alone, or GFP fused to WT, Y261F/Y365F (FF), or Y36F/Y261F/Y365F (FFF) mutants of LKB1; cells were treated with increasing concentrations of SU6656 for 1 hr and AMPK activity determined (mean ± SEM, n = 4). See also Figure S1. (D) HEK293 cells were transfected with DNAs encoding FLAG-tagged AMPK-α2 with or without a Y436F mutation. Cells were incubated with DMSO (control), 100 μM SU6656, 10 mM phenformin, or 10 μM A23187 for 1 hr; AMPK complexes were immunoprecipitated using anti-FLAG antibody and assayed. The top panels show kinase activities (mean ± SD, n = 3); the bottom panels show blots from the same experiment (n = 2). In all panels, asterisks indicate significant differences from DMSO controls; in (D), there were no significant differences between the WT and Y463F mutant. **p < 0.01, ****p < 0.0001. […]

Chain of α2 kinase domain (α2-KD, residues 1–310) (P54646 1-310): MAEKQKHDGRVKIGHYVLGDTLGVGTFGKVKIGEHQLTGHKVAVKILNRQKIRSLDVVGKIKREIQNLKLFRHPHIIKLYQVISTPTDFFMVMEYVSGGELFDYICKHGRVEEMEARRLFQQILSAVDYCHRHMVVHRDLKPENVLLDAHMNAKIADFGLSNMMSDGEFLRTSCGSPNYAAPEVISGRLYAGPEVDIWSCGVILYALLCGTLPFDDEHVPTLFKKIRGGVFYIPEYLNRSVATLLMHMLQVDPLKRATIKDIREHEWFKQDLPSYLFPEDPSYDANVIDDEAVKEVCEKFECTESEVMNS

Row | SMILES | ACC phosphorylation [1] | cellular AMP:ATP and ADP:ATP ratios [2] | potency of LKB1 inhibition relative to AMPK inhibition [3] | AMPK activity / Thr172 phosphorylation [4] | Km [5] [µM] | Erk1/Erk2 phosphorylation [6] | Erk1/2 phosphorylation [7] | AMPK activity / Thr172 phosphorylation [8]
1 | CC1(C)C(=O)N([C@H]2CCc3c(O)cccc32)c2nc(Nc3cccc(CN4CCCC4)c3)ncc21 [MRT199665] | inhibition of phosphorylation | not associated with changes in AMP:ATP or ADP:ATP ratios | inhibition of LKB1 was less potent than that of AMPK | modest increase in AMPK activity and Thr172 phosphorylation | – | – | – | –
2 | Nc1ncnc2c1ncn2[C@@H]1O[C@H](COP(=O)(O)OP(=O)(O)OP(=O)(O)O)[C@@H](O)[C@H]1O [ATP] | – | – | – | – | 151 ± 7 | – | – | –
3 | CC(C)(C)n1nc(-c2ccc(Cl)cc2)c2c(N)ncnc21 [PP2] | – | – | – | had no effect on AMPK activity or Thr172 phosphorylation | – | reduced phosphorylation of Erk1/Erk2 | had no effect on Erk1/2 | still had no effect on AMPK

Reference: article PMC5522529, “Mechanisms of Paradoxical Activation of AMPK by the Kinase Inhibitors SU6656 and Sorafenib” (Cell Chemical Biology, 2017)
